# In US20210145830A1, “MATERIALS AND METHODS FOR TREATING CANCER” (Mayo Foundation for Medical Education and Research, priority 2018, published 2021):
# Entries after “also recorded” stand apart in the source; their conditions may differ.
# Experiments:
# [1] = test system: CART cells; test: In vitro CART19 exhaustion assay; format: cell-based
# Protocol: FIG. 11 contains an exemplary timeline for an in vitro CART19 exhaustion assay in the presence of TP0903. T cells were incubated with target cells at a 1:5 ratio (experiments were done using JEKO cells as well as primary B cells). The low E:T ratio was used to induce a state of dysfunction of CART cells. Cells were cultured in the presence of increasing doses of TP0903. On day 5 of co-culture, cells were harvested, and expression of inhibitory receptors was analyzed. Co-culture in the presence of TP0903 reduces expression of PD1, TIM3, and LAG3 inhibitory receptors.
# T cells were incubated with target cells at a 1:5 ratio (experiments were done using JEKO cells as well as primary B cells). The low E:T ratio was used to induce a state of dysfunction of CART cells. Cells were cultured in the presence of increasing doses of TP0903. On day 5 of co-culture, cells were harvested, and expression of inhibitory receptors was analyzed. Co-culture in the presence of TP0903 reduced expression of PD1, TIM3, and LAG3 inhibitory receptors. TP0903 reduced exhaustion receptors on CART cells (FIG. 12).
# [2] = test system: CART19; test: CART19 cytokine release (Luminex) in the presence of TP0903; format: cell-based, human; conditions: for Th2 cytokines IL-4 and IL-5 / cytokine release syndrome (CRS) cytokines (MCP1, IL-6, IL-10, MIP-b): Jeko or CLL cells
# Protocol: FIG. 7 contains an exemplary timeline for a cytokine assay in the presence of TP0903. UTDs or CART19 were incubated with Jeko in the presence of TP0903 in the 1 to 1 ratio. At day 3, supernatant was harvested and analyzed by 32-plex Luminex array.
# FIG. 23. CART19 cytokine production in the presence of TP0903. CART19 cells or untransduced T cells were co-cultured with JeKo-1 cells or leukemic B cells derived from patients with chronic lymphocytic leukemia for 3 days and supernatants were analyzed for human cytokines (Luminex, 38-plex).
# FIG. 27. CART19 cytokine production in the presence of TP-0903. CART19 cells or untransduced T cells were co-cultured with JeKo-1 cells (left heat map) or leukemic B cells (right heat map) derived from patients with chronic lymphocytic leukemia for 3 days, and supernatants were analyzed for human cytokines (Luminex, 38-plex).
# Effector and target cells were incubated at a 1:1 ratio in T cell media for 24 or 72 hours as indicated. Supernatant was harvested and analyzed by 30-plex Luminex array according to the manufacturer's protocol (Millipore).
# UTDs or CART19 were incubated with Jeko cell line or primary CLL cells in the presence of TP0903, at 1:1 ratio for 3 days (FIG. 7). At the end of the experiment, supernatant was harvested and analyzed for cytokines by 30-plex multiplex. […] TP0903 suppressed critical cytokines for the development of CRS after CART cell therapy (FIG. 10).
# [3] = test system: p-LCK, p38MAPK, GATA-3, T-bet in CART19 cells; test: Western blot of signaling molecules in stimulated CART19 cells; format: cell-based
# Protocol: (§1) FIG. 24A-B. A. Western blot analysis of p-LCK inhibition by TP0903 in CART19 cells. CART19 cells were incubated with lethally irradiated JeKo-1 in the presence of TP0903 at a 1 to 3 ratio for 24 hours. After the incubation, CART19 cells were purified with anti-CD19 micro beads. […] B. Comparison of gene expression between TP0903 treated CART19 cells and non-treated CART19 cells subpopulations using RNA-seq. CART19 cells from three biological replicates were thawed and stimulated with irradiated JeKo-1 (120 Gy) for 5 days. Each sample was treated with either 30 nM TP0903 (treated condition) or DMSO (untreated condition). Representative flow cytometric analysis of CART19 cells before RNA isolation (right). RNA-seq was performed on an Illumina […] by the Genomic Sequencing Core at Mayo Clinic.
# [4] = test system: regulatory CART cells; test: Regulatory CART cells in CART19 co-culture with targets; format: cell-based; conditions: increasing doses of TP0903; CART19 co-cultured with targets
# From the text: FIG. 17. Increasing doses of TP0903 reduced regulatory CART cells when CART19 are co-cultured with their targets.
# [5] = test system: Blood T cells; test: Correlative analysis of blood T cells in Phase I trial of TP0903 (NCT02729298); format: in vivo, patients with solid tumors
# From the text: FIG. 20. Multiparametric flow cytometric analysis of peripheral blood samples obtained before and after TP0903 treatment in patients with advanced solid tumors. A. Representative CD4^+CD25^+Foxp3^+ regulatory T cells (Treg) (upper right quadrants) at baseline (left) and after treatment (right). Data were pooled from three independent experiments with peripheral blood mononuclear cells from three donors. B. Representative flow plot of CD4^+ and CCR6^− negative cells.
# The preclinical findings were validated in a correlative analyses of Phase I clinical trial of TP0903 for patients with solid tumors (NCT02729298). Blood T cells from 3 patients were isolated and analyzed before and a week after treatment with TP0903. […] These findings are further investigated in a Phase I clinical trial of TP0903 in relapsed/refractory CLL (NCT03572634).
# [6] = test system: CART19 cells; test: RNA-seq of TP0903 treated vs non-treated CART19 cells; format: cell-based
# Protocol: as §1
# FIG. 28A-E. A, Western blot analysis of p-LCK inhibition by TP-0903 in CART19 cells. CART19 cells were incubated with lethally irradiated JeKo-1 in the presence of TP0903 at a 1 to 3 ratio for 24 hours. After the incubation, CART19 cells were purified with anti-CD19 micro beads. B, Representative flow cytometric analysis of CART19 cells before RNA isolation. Principal component analysis (PCA) from RNA-seq analysis of untreated cells and cells treated with 30 nM of TP-0903. […]
# [7] = 3 days, supernatant, listed as TP-0903
# [8] = CART19 + irradiated JeKo-1, 24 hours, highest dose
# [9] = CART19 + irradiated JeKo-1, 24 hours, highest dose (65 nM)
# [10] = 3 patients, before vs a week after treatment
# [11] = CD4+ CCR6− cells, after TP0903 treatment
smiles,measurement,setting,value
CN1CCN(Cc2ccc(Nc3ncc(Cl)c(Nc4ccccc4S(=O)(=O)N(C)C)n3)cc2)CC1 [TP0903],"expression of PD1, TIM3, and LAG3 inhibitory (exhaustion) receptors on CART cells","[1]; 1:5 E:T, JEKO or primary B cells, increasing doses of TP0903, day 5",reduces; also recorded: downregulated in a dose depended manner
same,inhibitory receptors on activated CART cells,"[1]; CART19 with Jeko, Example 2",significantly downregulated
same,"CART Th1 specific cytokines (IFN-γ, TNF-α)","[2]; 1:1 with Jeko or primary CLL cells, 3 days, supernatant",only high doses (supra-physiological) suppressed; also recorded: maintains
same,IL-8,"[2]; JeKo-1 or CLL leukemic B cells, 3 days, Luminex 38-plex",downregulated
same,"cytokine production ability of IFN-γ, GM-CSF, TNF-α, and IL-2","[2]; JeKo-1 or CLL patient leukemic B cells, 3 days, Luminex 38-plex",maintained
same,Th2 cytokines IL-4 and IL-5,"[2]; 3 days, supernatant",suppresses; also recorded: significantly downregulated
same,"cytokine release syndrome (CRS) cytokines (MCP1, IL-6, IL-10, MIP-b)","[2]; 3 days, supernatant",suppresses; also recorded: reduction; also recorded: remarkably downregulated
same,Th2 cytokines IL-4 and IL-5,[2]; [7],significantly downregulated
same,"cytokine release syndrome (CRS) cytokines (MCP1, IL-6, IL-10, MIP-b)",[2]; [7],remarkably downregulated
same,Th polarization of CART cells,[2]; stimulated with JeKo or leukemic B cells from CLL patients,polarization of CART cells into a Th1 phenotype
same,GATA-3,[3]; [8],inhibited
same,T-bet,[3]; [8],inhibited
same,phosphorylation of LCK,[3]; [9],modest inhibition
same,phosphorylation of p38MAPK,[3]; [9],modest inhibition
same,phosphorylation of LCK,"[3]; T cell lysates, CART19, Example 2 text",remarkably reduced
same,regulatory CART cells,[4],reduced
same,Th phenotype,[5]; [10],polarization to a Th1 phenotype
same,Tregs,[5]; [10],significant reduction
same,inhibitory receptors,[5]; [10],reduction
same,CXCR3+CCR4+ (double positive) fraction,[5]; [11],increase
same,CXCR3−CCR4+ fraction (Th2),[5]; [11],Remarked reduction
same,"immune synapse related genes (cell junction, cell migration)",[6]; activated CART cells treated with TP0903,significantly increased
same,differentially expressed genes in transcriptome vs non-treated cells,[6]; activated CART cells treated with TP0903 (30 nM),More than 100 genes
